# Source: patent US5468758A, “Crystalline forms of endo-2,3-dihydro-N-(8-methyl)-8-azabicyclo[3.2.1]oct-3-yl)-2-oxo-1H-benz imidazole-1-carboxamides” (Boehringer Ingelheim Italia S.p.A., priority 1992, dated 1995)
# Where a name gives a salt, the structure may show the parent alone.
# Key:
# Assay type in all cases: physicochemical
# [1] = Water loss on desiccation under vacuum; conditions: between room temperature and 60° C. under vacuum, most preferably 40° C., 0.1 mm Hg, 24 hours; in words
# Method: Compounds 2a and 2b may be prepared by dissolving the compounds 1a and 1b, as free base, in a hot aqueous solvent, preferably a hot aqueous alkanol, by adding the required amount of gaseous hydrogen chloride, filtering the resulting solution and letting it cool to room temperature. In a preferred embodiment of the process according to the invention, compound 2a is prepared by using, as an hot aqueous alkanol, hot 85% aqueous ethanol. The crystals of compound 2a may be collected by vacuum filtration and are washed with a small amount of aqueous ethanol. In a preferred embodiment of the process according to the invention, compound 2b is prepared by using, as an hot aqueous alkanol, hot 95% aqueous isopropanol. The crystals of compound 2b may be collected by vacuum filtration and are washed with a small amount of aqueous isopropanol. […] Water content may be measured by usual techniques such as the Karl Fischer test. Alternatively, compounds 2a and 2b may be conveniently prepared by dissolving the anhydrous form of compounds 1a and 1b, as hydrochloride, in hot aqueous ethanol, preferably 85% ethanol (respectively in hot aqueous isopropanol, preferably 95% isopropanol) and allowing to cool the solution at room temperature; crystals of compound 2 a (respectively 2b), separated from the cooled solution, are collected by vacuum filtration and manipulated as previously described. […]
# [2] = Long-term real time stability tests in tablets and capsules; conditions: for % degradation: tablets and capsules in PVC/PVDC blister with aluminium foil, hydrochloride monohydrate
# Source text: (§1) Drug stability in these final compositions may be measured in accelerated stability tests or in long term real time stability tests. In accelerated stability tests, the above pharmaceutical compositions are exposed at high temperatures at different degrees of relative humidity for a period of time. Such tests are considered to be indicative of the stability of the composition at normal conditions. In long term real time stability studies the final compositions are exposed to normal conditions of storage at ambient temperatures at different degrees of relative humidity.
# Tablets and capsules are packaged in PVC/PVDC blister with aluminium foil
# [3] = Moisture sorption/desorption studies (hygrostat, storage at different temperatures and relative humidity); conditions: for water content (Table V): 11.2% RH, % on the weight of compound 1a
# Method: The determination of the sorption isotherms was carried out in a hygrostat.
# At suitable intervals, the sample was weighed by means of a sample balance. The atmosphere in the hygrostat and therefore around the sample of compound 1a (1b) and 2a (2b) was conditioned and kept by a saturated solutions of a suitable salt:
# Na Cl saturated solution 75.3% RH/25° C. 74.8% RH/37° C.
# KNO3 saturated solution 93.7% RH/25° C. 90.0% RH/37° C.
# At the end of the experiment, after completing the hysteresis, that is the adsorption--desorption cycle of humidity, the compound was assayed for the title and degradation products by TLC and HPLC, the physical state by DSC and water content by TGA.
# [4] = Accelerated stability tests in tablets and capsules; conditions: for % degradation: tablets and capsules in PVC/PVDC blister with aluminium foil, hydrochloride monohydrate
# Source text: as §1
# (*)according to H. Leven Berger Pharm. Act. Helv. 50 (1975) 88-91 it is
# equivalent to 2 years storage at room temperature. Tablets and capsules
# are packaged in PVC/PVDC blister with aluminium foil.
# (*)according to "Guidelines for stability studies for Human Drugs and
# Biologics" (1987) (USA/FDA) it is equivalent to 2 years at room
# temperature. Tablets and capsules are packaged in PVC/PVDC blister with […]
# [5] = Moisture content during tablet manufacturing (mixing and tableting); conditions: hydrochloride monohydrate; for Moisture content: % on the weight of compound 1a
# Source text: As a consequence, storage of compound 2a may be effected in normal conditions and no particular precautions are needed to avoid exposure to moisture. The titer of compound 2a, when it is stored in normal conditions, is therefore maintained at difference with compound 1a which, in the same conditions, may show different titles according to the water content. The hygroscopicity may also influence the drug title immediately after the manufacturing of tablets. In fact during the process of manufacturing the drug exposed at normal ambient conditions where it can take up moisture.
# [6] = Milling studies (FRITSCH Pulverisette 14 Rotor Speed Mill)
# Method: The milling process was performed by the FRITSCH Pulverisette 14 Rotor Speed Mill supplied with circular sieve stainless steel with trapezoidal 0.080 mm diameter openings. The samples were passed through the mill twice at 20.000 rpm motor speed. The sample is assayed for title and degradation products by TLC and HPLC, physical state by DSC, water content by TGA, particle size distribution by Mercury Instrusion Porosimetry. The mi 11ed compounds are formulated in capsules and tablets at very low dose level (0.5 mg) by direct mixing and direct compression manufacturing method, respectively.
compound,measurement,setting,value
"CN1C2CCC1CC(NC(=O)n1c(=O)[nH]c3ccccc31)C2 (stereo not drawn) [Compound 2a, Endo-2,3-dihydro-N-(8-methyl-8-azabicyclo[3.2.1]oct-3-yl)-2-oxo-1H-benzimidazole-1-carboxamide, hydrochloride monohydrate]",loss of water content on desiccation,[1],without any appreciable loss of water content
same,% degradation,"[2]; 3 months/40° C., 129600 min",0.4%
same,% degradation,"[2]; 6 months/30° C.-70% RH, 259200 min",0.1%
same,% degradation,"[2]; 6 months/40° C., 259200 min",0.6%
same,stability in tablets and capsules,"[2]; long term real time tests, in comparison with compounds 1a and 1b, in words",better stability
same,water content in conditions of extreme dryness,"[3]; 11 RH, 37° C., in words",not affected
same,water content (Table V),"[3]; 37° C., 2 h",5.32%
same,water content (Table V),"[3]; 37° C., 4 h",5.31%
same,water content (Table V),"[3]; 37° C., 6 h",5.31%
same,water content (Table V),"[3]; 37° C., 21 days",5.29%
same,water content (Table V),"[3]; 37° C., time 0",5.26%
same,water content (Table III),"[3]; 37° C., 75% RH, 2 h, hydrochloride monohydrate",5.8%
same,water content (Table III),"[3]; 37° C., 75% RH, 4 h, hydrochloride monohydrate",5.75%
same,water content (Table III),"[3]; 37° C., 75% RH, 6 h, hydrochloride monohydrate",5.79%
same,water content (Table III),"[3]; 37° C., 75% RH, 1 d, hydrochloride monohydrate",5.75%
same,water content (Table III),"[3]; 37° C., 75% RH, 5 d, hydrochloride monohydrate",5.8%
same,water content (Table III),"[3]; 37° C., 75% RH, 9 d, hydrochloride monohydrate",5.76%
same,water content (Table III),"[3]; 37° C., 75% RH, 15 d, hydrochloride monohydrate",5.8%
same,water content (Table III),"[3]; 37° C., 94% RH, 2 h, hydrochloride monohydrate",5.49%
same,water content (Table III),"[3]; 37° C., 94% RH, 4 h, hydrochloride monohydrate",5.47%
same,water content (Table III),"[3]; 37° C., 94% RH, 6 h, hydrochloride monohydrate",5.53%
same,water content (Table III),"[3]; 37° C., 94% RH, 1 d, hydrochloride monohydrate",5.5%
same,water content (Table III),"[3]; 37° C., 94% RH, 5 d, hydrochloride monohydrate",5.49%
same,water content (Table III),"[3]; 37° C., 94% RH, 9 d, hydrochloride monohydrate",5.48%
same,water content (Table III),"[3]; 37° C., 94% RH, 15 d, hydrochloride monohydrate",5.48%
same,water content (Table III),"[3]; Room Temperature, 75% RH, 2 h, hydrochloride monohydrate",5.46%
same,water content (Table III),"[3]; Room Temperature, 75% RH, 4 h, hydrochloride monohydrate",5.43%
same,water content (Table III),"[3]; Room Temperature, 75% RH, 6 h, hydrochloride monohydrate",5.37%
same,water content (Table III),"[3]; Room Temperature, 75% RH, 1 d, hydrochloride monohydrate",5.41%
same,water content (Table III),"[3]; Room Temperature, 75% RH, 4 d, hydrochloride monohydrate",5.42%
same,water content (Table III),"[3]; Room Temperature, 75% RH, 8 d, hydrochloride monohydrate",5.36%
same,water content (Table III),"[3]; Room Temperature, 75% RH, 20 d, hydrochloride monohydrate",5.41%
same,water content (Table III),"[3]; Room Temperature, 94% RH, 2 h, hydrochloride monohydrate",5.49%
same,water content (Table III),"[3]; Room Temperature, 94% RH, 4 h, hydrochloride monohydrate",5.53%
same,water content (Table III),"[3]; Room Temperature, 94% RH, 6 h, hydrochloride monohydrate",5.51%
same,water content (Table III),"[3]; Room Temperature, 94% RH, 1 d, hydrochloride monohydrate",5.49%
same,water content (Table III),"[3]; Room Temperature, 94% RH, 4 d, hydrochloride monohydrate",5.44%
same,water content (Table III),"[3]; Room Temperature, 94% RH, 8 d, hydrochloride monohydrate",5.48%
same,water content (Table III),"[3]; Room Temperature, 94% RH, 20 d, hydrochloride monohydrate",5.49%
same,stability in condition of storage,"[3]; different temperatures and relative humidity, in words",stable
same,moisture absorption,"[3]; different temperatures and relative humidity, in words, hydrochloride monohydrate",do not absorb moisture
same,% degradation,"[4]; 1 month/55° C., 43200 min",0.5%
same,% degradation,"[4]; 3 months/40° C.-75% RH, 129600 min",0.5%
same,% degradation,"[4]; 3 months/55° C., 129600 min",1.6%
same,% degradation,"[4]; 6 months/40° C.-75% RH, 259200 min",1.0%
same,stability in tablets and capsules,"[4]; accelerated tests, in comparison with compounds 1a and 1b, in words",better stability
same,Moisture content,"[5]; Final (b), tableting",4.90%
same,Moisture content,"[5]; Intermediate (a), mixing",4.90%
same,Moisture content,[5]; Start,4.90%
same,water content during manufacturing,"[5]; mixing (a) and tableting (b) phases, in words",stable water content
same,particle size reduction (milling efficiency),"[6]; Mercury Porosimetry Analysis, in words",same rank order
same,stability to milling,"[6]; in words, in comparison with the anhydrous form",unexpected better stability to milling
same,percentage of degradation products after milling,"[6]; rotor speed of 20,000 rpm, hydrochloride monohydrate",0.0%
